Results published in patent US20040167189A1, “Materials and methods for inhibiting Wip1” (The Government of the U.S.A., as Represented by the …, priority 2002, published 2004).
Where “and” joins values, the source holds several entries; their conditions need not be identical. Equal values may be shown once. Read-outs that look alike come from different tables or passages of the source.

T1: phosphoserine peptide substrate (LRRApSLG)
T1 chain: LRRASLG


Experiments:
[1] = molecular target: recombinant Wip1 (Homo sapiens, UniProt O15297); conditions: for relative effectiveness as Wip1 inhibitor (in words): at the concentration of 0.25 μM;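 for all read-outs here: recombinant His-tagged Wip1 dephosphorylating a phosphoserine peptide for 1 h at 30 °C, read by fluorescence quench (ex 560, em 590 nm), signal rising with dephosphorylation, DMSO-only reactions as control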
Text: Phosphatase activity of Wip1 was monitored with IQ™ Phosphatase Assay Kit (Pierce, Rockford, Ill.). […] At the end of phosphatase reaction, the labeled peptide population contains a mixture of phosphorylated and nonphosphorylated peptide species. The iron-containing compound binds specifically to the phosphorylated peptide present and its fluorescence is quenched. The observed relative fluorescence units increase in proportion to the extent of dephosphorylation of the phosphopeptide. The standard phosphatase assay was performed by incubating 0.2 μg recombinant Wip1 in the buffer, containing 20 mM MOPS, pH 7.0, 20 mM MgCl2, and 30 μM of phosphoserine peptide substrate (LRRApSLG) at 30° C. for 1 hour. The reaction was terminated by addition of 60 μl IQ™ Working Solution. Fluorescent intensity was measured on the Fluorometer at 560/590 ex/em. Compounds (2 ml) from a chemical library of potential Wip1 inhibitors dissolved in 50% DMSO were added to fmal concentration of 10, 1, 0.5, or 0.2 μM. Control reactions contained only 6% DMSO.
Wip1 activity was measured in the presence of 1990 chemical compounds, 10 μM final concentration each.

[2] = test system: phosphatase PP2A
[3] = molecular target: T1, phosphoserine peptide substrate …
[4] = compound at 0.25 μm, DMSO control 740
[5] = compound at 0.5 μm, DMSO control 740
[6] = compound at 1 μm, DMSO control 725
[7] = compound at 10 μm, DMSO control 1400

| Molecule | Wip1 Activity [1, 4] [light units @ 590 nm] | Wip1 Activity [1, 5] [light units @ 590 nm] | Wip1 Activity [1, 6] [light units @ 590 nm] | Wip1 Activity [1, 7] [light units @ 590 nm] | further results |
| --- | --- | --- | --- | --- | --- |
| O=[N+]([O-])c1ccc(S(=O)(=O)Cc2ccccc2)c2nonc12 [Compound A] | 745 | 725 | 250 | 0 | – |
| O=C(O)C=Cc1ccc[c]([Sb](=[O])([OH])[OH])c1 [Compound B] | 740 | 723 | 575 | 0 | – |
| Nc1nc(Sc2ccc([N+](=O)[O-])c3nonc23)c2nc[nH]c2n1 [Compound C] | 745 | 750 | 610 | 0 | – |
| CN(C)CN1CSC(=S)N(CN(C)C)C1 [Compound D] | 750 | 740 | 595 | 0 | – |
| CC(=NN=C([S-])SCc1ccccc1)c1ccccn1.[Cl-].[Cu+2] [Compound F] | 740 | 695 | 100 | 0 | – |
| Nc1nc([S][Hg][c]2cc([N+](=O)[O-])ccc2O)c2ncn(C3OC(CO)C(O)C3O)c2n1 (centres unmarked) [Compound H] | 675 | 690 | 225 | 0 | – |
| O=C(O)c1c(Br)c(Br)c(Br)c(Br)c1C1c2ccc(O)cc2Oc2cc(O)ccc21 [Compound I] | 625 | 710 | 250 | 0 | – |
| O=C(O)c1cc[c]([Hg][S]c2ncnc3nc[nH]c23)cc1 [Compound K] | 630 | 680 | 300 | 0 | – |
| CC1=C(Br)C(=O)C(C)=C(Br)C1=O [Compound L] | 375 | 220 | 60 | 0 | activity of Wip1 in the presence of compound (in words) ([1]; 1 μM final concentration): nearly not detectable; Phosphatase Activity (Wip1) ([1]; Compound L at 1 μM final concentration, DMSO control 500): 5 light units @ 590 nm; relative effectiveness as Wip1 inhibitor (in words) [1]: most effective inhibitors; decrease of the activity of PP2A ([2]; 1 μM final concentration): 5%; Phosphatase Activity (PP2A) ([2]; Compound L at 1 μM final concentration, DMSO control 760): 690 light units @ 590 nm |
| Nc1cc[c]([Hg][S]c2nc(N)nc3c2ncn3C2OC(CO)C(O)C2O)cc1 (centres unmarked) [Compound M] | 525 | 400 | 145 | 0 | relative effectiveness as Wip1 inhibitor (in words) [1]: most effective inhibitors |
| O=C1C(Cl)=C(Nc2ccc(S(=O)(=O)Nc3ccccn3)cc2)C(=O)c2ccccc21 [Compound N] | – | – | – | 0 | Wip1 Activity [1]: 645 light units @ 590 nm and 710 light units @ 590 nm and 550 light units @ 590 nm |
| recombinant full-size human Wip1 enzyme with His-Tag on the NH2 terminus (protein) MAGLYSLGVSVFSDQGGRKYMEDVTQIVVEPEPTAEEKPSPRRSLSQPLPPRPSPAALPGGEVSGKGPAVAAREARDPLPDAGASPAPSRCCRRRSSVAFFAVCDGHGGREAAQFAREHLWGFIKKQKGFTSSEPAKVCAAIRKGFLACHLAMWKKLAEWPKTMTGLPSTSGTTASVVIIRGMKMYVAHVGDSGVVLGIQDDPKDDFVRAVEVTQDHKPELPKERERIEGLGGSVMNKSGVNRVVWKRPRLTHNGPVRRSTVIDQIPFLAVARALGDLWSYDFFSGEFVVSPEPDTSVHTLDPQKHKYIILGSDGLWNMIPPQDAISMCQDQEEKKYLMGEHGQSCAKMLVNRALGRWRQRMLRADNTSAIVICISPEVDNQGNFTNEDELYLNLTDSPSYNSQETCVMTPSPCSTPPVKSLEEDPWPRVNSKDHIPALVRSNAFSENFLEVSAEIARENVQGVVIPSKDPEPLEENCAKALTLRIHDSLNNSLPIGLVPTNSTNTVMDQKNLKMSTPGQMKAQEIERTPPTNFKRTLEESNSGPLMKKHRRNGLSRSSGAQPASLPTTSQRKNSVKLTMRRRLRGQKKIGNPLLHQHRKTVCVC | – | – | – | – | Phosphatase Activity (light units @ 590 nm), DMSO control (light units @ 590 nm) [3]: 500; Wip1 Activity (light units @ 590 nm), DMSO control (light units @ 590 nm) [3]: 1400 and 725 and 740 |
